Laboratory results taken from patent US10906916B2, “Thienopyrimidinones as ubiquitin-specific protease 7 inhibitors” (Valo Early Discovery, Inc., priority 2015, dated 2021).

Target: T1, USP7 (construct USP7 (208-1102) 6*His) (Homo sapiens, UniProt Q93009)
T1 construct: USP7, construct USP7 (208-1102) 6*His, Viva Biotech; 6xHis; purchased Viva Biotech
Assay: USP7 Assay (Ubiquitin-Rhodamine110 Assay)
Type: biochemical
Details: Ub-Rh110 substrate 25 nM, enzyme 62.5 pM, 30 min preincubation; read-out: USP7_IC50
Method: Each assay was performed in a final volume of 15 μL in assay buffer containing 20 mM Tris-HCl (pH 8.0, (1M Tris-HCl, pH 8.0 solution; Corning 46-031-CM)), 1 mM GSH (L-Glutathione reduced; Sigma #G4251), 0.03% BGG (0.22 μM filtered, Sigma, #G7516-25G), and 0.01% Triton X-100 (Sigma, #T9284-10L). Nanoliter quantities of either an 8-point or 10-point, 3-fold serial dilution in DMSO was pre-dispensed into assay plates (Perkin Elmer, ProxiPlate-384 F Plus, #6008269) for a final test concentration range of either 25 μM to 11 nM or 25 μM to 1.3 nM, respectively. The final concentration of the enzyme (USP7, construct USP7 (208-1102) 6*His, Viva Biotech) in the assay was 62.5 pM. Final substrate (Ub-Rh110; Ubiquitin-Rhodamine 110, R&D Systems #U-555) concentration was 25 nM with [Ub-Rh110]<<Km. 5 μL of 2× enzyme was added to assay plates (pre-stamped with compound) preincubated with USP7 for 30 min and then 5 μL of 2× Ub-Rh110 was added to assay plates. Plates were incubated stacked for 20 min at room temperature before addition of 5 μL, of stop solution (final concentration of 1.0 mM citric acid in assay buffer (Sigma, #251275-500G)). Fluorescence was read on the Envision (Excitation at 485 nm and Emission at 535 nm; Perkin Elmer) or on the PheraSTAR (Excitation at 485 nm and Emission at 535 nm; BMG Labtech).
Data from USP7 Assay was reported as percent inhibition (inh) compared with control wells based on the following equation: % inh=1−((FLU−AveLow)/(AveHigh−AveLow)) where FLU=measured Fluorescence; AveLow=average Fluorescence of no enzyme control (n=16); and AveHigh=average Fluorescence of DMSO control (n=16). IC50 values were determined by curve fitting of the standard 4 parameter logistic fitting algorithm included in the Activity Base software package: IDBS XE Designer Model205. Data is fitted using the Levenburg Marquardt algorithm.

T1 sequence (Q93009 208-1102): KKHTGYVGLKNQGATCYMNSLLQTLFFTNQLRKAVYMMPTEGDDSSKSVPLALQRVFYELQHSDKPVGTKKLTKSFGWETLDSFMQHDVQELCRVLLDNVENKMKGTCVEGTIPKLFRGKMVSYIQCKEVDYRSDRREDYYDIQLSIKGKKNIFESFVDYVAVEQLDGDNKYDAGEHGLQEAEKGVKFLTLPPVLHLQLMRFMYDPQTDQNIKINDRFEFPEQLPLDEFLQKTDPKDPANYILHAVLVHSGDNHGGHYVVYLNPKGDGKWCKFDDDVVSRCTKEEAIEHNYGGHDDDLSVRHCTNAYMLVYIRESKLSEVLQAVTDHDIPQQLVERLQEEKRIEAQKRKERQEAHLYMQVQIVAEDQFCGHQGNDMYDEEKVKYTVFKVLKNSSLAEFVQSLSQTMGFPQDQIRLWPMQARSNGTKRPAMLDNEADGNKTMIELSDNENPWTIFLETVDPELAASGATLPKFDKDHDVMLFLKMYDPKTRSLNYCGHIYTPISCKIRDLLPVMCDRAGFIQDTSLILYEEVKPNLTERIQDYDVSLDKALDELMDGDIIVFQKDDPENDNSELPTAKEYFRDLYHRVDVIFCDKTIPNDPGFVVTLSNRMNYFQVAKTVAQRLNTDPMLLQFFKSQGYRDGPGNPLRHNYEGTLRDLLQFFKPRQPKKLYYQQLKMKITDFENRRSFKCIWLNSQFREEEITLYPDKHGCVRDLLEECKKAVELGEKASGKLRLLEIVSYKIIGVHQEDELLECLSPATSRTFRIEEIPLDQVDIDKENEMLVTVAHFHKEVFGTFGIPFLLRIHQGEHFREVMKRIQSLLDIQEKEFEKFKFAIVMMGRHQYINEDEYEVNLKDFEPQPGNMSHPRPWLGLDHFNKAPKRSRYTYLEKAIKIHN

SMILES | IC50
COc1ccc(C(=O)N2CCC(O)(Cn3cnc4c(-c5ccc(F)cc5)csc4c3=O)CC2)cc1 [Compound I-9, 7-(4-fluorophenyl)-3-((4-hydroxy-1-(4-methoxybenzoyl)piperidin-4-yl)methyl)thieno[3,2-d]pyrimidin-4(3H)-one] | 1000 to 10000 nM
Cc1cc2c(=O)n(CC3(O)CCN(C(=O)CC(C)c4ccccc4)CC3)cnc2s1 (stereo not drawn) [Compound I-6, 3-((4-hydroxy-1-(3-phenylbutanoyl)piperidin-4-yl)methyl)-6-methylthieno[2,3-d]pyrimidin-4(3H)-one] | < 300 nM
Cc1sc2ncn(CC3(O)CCN(C(=O)CC(C)c4ccccc4)CC3)c(=O)c2c1C (stereo not drawn) [Compound I-8, 3-((4-hydroxy-1-(3-phenylbutanoyl)piperidin-4-yl)methyl)-5,6-dimethylthieno[2,3-d]pyrimidin-4(3H)-one] | > 10000 nM
CN(C)C/C=C/C(=O)NCCCC(=O)N1CCC(O)(Cn2cnc3c(-c4ccc(F)cc4)csc3c2=O)CC1 [Compound I-12, (E)-4-(dimethylamino)-N-(4-(4-((7-(4-fluorophenyl)-4-oxothieno[3,2-d]pyrimidin-3(4H)-yl)methyl)-4-hydroxypiperidin-1-yl)-4-oxobutyl)but-2-enamide] | 1000 to 10000 nM
CN(C)C/C=C/C(=O)NCCCCC(=O)N1CCC(O)(Cn2cnc3c(-c4ccc(F)cc4)csc3c2=O)CC1 [Compound I-11, (E)-4-(dimethylamino)-N-(5-(4-((7-(4-fluorophenyl)-4-oxothieno[3,2-d]pyrimidin-3(4H)-yl)methyl)-4-hydroxypiperidin-1-yl)-5-oxopentyl)but-2-enamide] | 1000 to 10000 nM
CCC(CC(=O)N1CCC(O)(Cn2cnc3sccc3c2=O)CC1)c1ccccc1 (stereo not drawn) [Compound I-5, 3-((4-hydroxy-1-(3-phenylpentanoyl)piperidin-4-yl)methyl)thieno[2,3-d]pyrimidin-4(3H)-one] | 1000 to 10000 nM
CC(CC(=O)N1CCC(O)(Cn2cnc3sc4c(c3c2=O)CCCC4)CC1)c1ccccc1 (stereo not drawn) [Compound I-2, 3-((4-hydroxy-1-(3-phenylbutanoyl)piperidin-4-yl)methyl)-5,6,7,8-tetrahydrobenzo[4,5]thieno[2,3-d]pyrimidin-4(3H)-one] | > 10000 nM
CC(CC(=O)N1CCC(O)(Cn2cnc3sccc3c2=O)CC1)c1ccccc1 (stereo not drawn) [Compound I-1, 3-((4-hydroxy-1-(3-phenylbutanoyl)piperidin-4-yl)methyl)thieno[2,3-d]pyrimidin-4(3H)-one] | 300 to 1000 nM
CC(CC(=O)N1CCC(O)(Cn2cnc3sc4c(c3c2=O)CCC4)CC1)c1ccccc1 (stereo not drawn) [Compound I-3, 3-((4-hydroxy-1-(3-phenylbutanoyl)piperidin-4-yl)methyl)-3,5,6,7-tetrahydro-4H-cyclopenta[4,5]thieno[2,3-d]pyrimidin-4-one] | 1000 to 10000 nM
O=C(c1ccccc1)N1CCC(O)(Cn2cnc3c(-c4ccc(F)cc4)csc3c2=O)CC1 [Compound I-10, 3-((1-benzoyl-4-hydroxypiperidin-4-yl)methyl)-7-(4-fluorophenyl)thieno[3,2-d]pyrimidin-4(3H)-one] | 1000 to 10000 nM
CCCc1cc2c(=O)n(CC3(O)CCN(C(=O)CC(C)c4ccccc4)CC3)cnc2s1 (stereo not drawn) [Compound I-4, 3-((4-hydroxy-1-(3-phenylbutanoyl)piperidin-4-yl)methyl)-6-propylthieno[2,3-d]pyrimidin-4(3H)-one] | 300 to 1000 nM
CCc1cc2c(=O)n(CC3(O)CCN(C(=O)CC(C)c4ccccc4)CC3)cnc2s1 (stereo not drawn) [Compound I-7, 6-ethyl-3-((4-hydroxy-1-(3-phenylbutanoyl)piperidin-4-yl)methyl)thieno[2,3-d]pyrimidin-4(3H)-one] | < 300 nM
